Earlier results in US20070003591A1, “USE OF A PROPOLIS AS A COATING MATERIAL FOR MEDICAL IMPLANTS” (priority 2005, published 2007).

How the values were obtained:
[1] = test system: transcription factor FKB in human breast cancer cells of the type MCF-7; settings: MCF-7 cells; Watabe et al. 2004
[2] = test system: transcription factor FKB in T cells; settings: Márquez et al. 2004

O=C(/C=C/c1ccc(O)c(O)c1)OCCc1ccccc1 [caffeic acid phenylethyl ester]
inhibitor of the transcription factor FKB [1]: inhibitor
inhibitor of the transcription factor FKB [2]: inhibitor
